From patent US9821077B2, “Diagnostic substances for optical imaging testing on the basis of nanoparticular formulations” (NANOPET PHARMA GMBH, priority 2007, dated 2017)
Values joined by “and” are separate entries in the source; they are usually repeats but may differ in a detail not shown here. Equal values may be shown once.

How the values were obtained:
[1] = Absorption spectra, absorption maximum; type: physicochemical; conditions: dye in water
Description: Absorption spectra in a wavelength range of 700 nm to 900 nm were recorded with a UVIKON 933 Spectrophotometer (company Kontron) in the various solvents. →ICG in water λmax=780 nm ICO micelles λmax=797 nm (FIG. 1A)
Absorption spectra were recorded in a wavelength range of 600 nm to 900 nm with a DU®530 Beckman Spectralphotometer in the various solvents. →ICG in water λmax=779 nm ICG-Cithrol 10 MS micelles λmax=800 nm (FIG. 2A)
Absorption spectra were recorded in a wavelength range of 600 nm to 900 nm with a DU®530 Beckman Spectralphotometer in the various solvents. →ICG in water λmax=779 nm ICG-Crodet S40 LD micelles λmax=800 nm (FIG. 3A)
(§1) Absorption spectra were recorded in a wavelength range of 600 nm to 900 nm with a DU®530 Beckman Spectralphotometer in the various solvents. […]
as §1
Absorption spectra were recorded in a wavelength range of 600 nm to 900 nm with a DU®530 Beckman Spectralphotometer in the various solvents. →NW003.5 in water λmax (monomer)=788 nm NW003.5-Solutol® HS 15 micelles λmax=806 nm (FIG. 6B)
Absorption spectra were recorded in a wavelength range of 600 nm to 900 nm with a DU®530 Beckman Spectra'photometer in the various solvents. →IR-783 in water λmax (Monomer)=775 nm IR-783-Solutol® HS 15 micelles λmax=797 nm (FIG. 7B)

[2] = tested on: plasma protein; assay: Plasma protein binding by wavelength shift in the absorption spectrum; type: in vitro ADME
Excerpt: For this purpose, spectra of 700 nm to 900 nm of ICG in water and in plasma were compared with spectra of ICG micelles in water and in plasma.

[3] = in DMSO, used as the standard; cited from earlier work
[4] = Stability test, absorption as a function of time; type: physicochemical; conditions: purely aqueous formulation, 0.0005% ICG, room temperature, 7 days
Description: For the stability test the absorption in the maximum of the various formulations was measured as a function of time. For this purpose, 0.0005% ICG solutions were prepared and stored at room temperature.
For the stability test the absorption spectra of the various formulations were measured as a function of time.

[5] = Fluorescence measurements, quantum yield; type: physicochemical; conditions: in water; standard ICG in DMSO
Description: Fluorescence measurements were carried out by means of a FluoroLog-2 Spectrofluorometer (350 W Xenon lamp) of the company Spex. For this purpose, emission spectra of 700 nm to 900 nm were recorded. The excitation wavelength corresponded to the respective maximum of the formulation in the absorption spectrum (ICG in water λmax=780 nm and ICG micelles λmax=795 nm). Due to the s & r modus of the software DM 3000, the different lamp intensities of the different excitation wavelengths could be taken into account in the evaluation.
The quantum yield is calculated via the surface area below the emission curve. ICG in DMSO was used as the standard (Φ=0.13).
(§2) Fluorescence measurements were carried out by means of a Spectrofluorometer FP-6500 of the company JASCO. For this purpose, emission spectra of 770 to 900 nm were recorded. […] The quantum yield is calculated via the surface area below the emission curve. […]
as §2, §2

## CC1(C)C(=CC=C2CCCC(C=CC3=[N+](CCCCS(=O)(=O)[O-])c4ccccc4C3(C)C)=C2Cl)N(CCCCS(=O)(=O)[O-])c2ccccc21.[Na+] [IR-783]
[1]
  absorption maximum λmax: 775 nm

## CC1(C)C(/C=C/C=C/C=C/C=C2\N(CCCCS(=O)(=O)O)c3ccc4ccccc4c3C2(C)C)=[N+](CCCCS(=O)(=O)[O-])c2ccc3ccccc3c21 [ICG, indocyanine green]
[2]
  absorption maximum in plasma: 805 nm
[3]
  fluorescence quantum yield Φ of the standard: 0.12 and 0.13
[4]
  standardized absorption after storage: below 10%
[1]
  absorption maximum λmax: 779 nm and 780 nm
[5]
  fluorescence quantum yield Φ: 0.02
